Experimental data reported in patent publication US8455518B2, “Method of treating skin with microRNA modulators” (Avon Products, Inc., priority 2010, dated 2013).

Legend:
Assay type in all cases: cell-based
[1] = tested on: miR-29a; test: Inhibition of miR-29a by specific compounds in human dermal fibroblasts, qRT-PCR; details: 0.0005% compound, 48 hours; for inhibition of miR-29a relative to vehicle treated cells (in words): p<0.05; for miR-29a (%): serum-free, relative to vehicle treated cells
Experimental: (§1) The expression of miR-29a and miR29b in young versus old skin fibroblasts was examined by qRT-PCR.
(§2) Human dermal fibroblasts were grown in the absence of serum overnight, followed by treatment with 0.0005% of test compounds in the absence of serum for 48 hours. Cells were analyzed for expression levels of miR-29a and miR-29b by qRT-PCR as described in Examples 1 and 2. […] All values are statistically significant at p<0.05.

[2] = tested on: collagen; test: Collagen protein levels by ELISA in compound-treated human dermal fibroblasts; details: 0.0005% compound, 48 hours; for collagen protein levels as measured by ELISA (in words): p<0.05; for Collagen (%): serum-free, collagen protein by ELISA
[3] = tested on: miR-29b; test: Inhibition of miR-29b by specific compounds in human dermal fibroblasts, qRT-PCR; details: 0.0005% compound, 48 hours; for inhibition of miR-29b relative to vehicle treated cells (in words): p<0.05; for miR-29b (%): serum-free, relative to vehicle treated cells
Experimental: as §1, §2

Structure (SMILES) | inhibition of miR-29a relative to vehicle treated cells (in words) [1] | miR-29a (%) [1] [%] | collagen protein levels as measured by ELISA (in words) [2] | Collagen (%) [2] [%] | inhibition of miR-29b relative to vehicle treated cells (in words) [3] | miR-29b (%) [3] [%]
CCOCCCNC(=O)c1cc(NC(=O)/C=C/c2ccccc2)ccc1N1CCC(Cc2ccccc2)CC1 [Compound 2, 2-(4-benzylpiperidin-1-yl)-N-(3-ethoxypropyl)-5-[(2E)-3-phenylprop-2-enamido]-benzamide] | significant inhibition | −33.67 | increased collagen protein levels | 30 | significant inhibition | −61.53
CC(C)CN(Cc1ccc(OS(C)(=O)=O)cc1)S(=O)(=O)c1ccccc1 [Compound 1, N-(2-methylpropyl)-N-[[4-[(methylsulfonyl)oxy]phenyl]methyl]-benzenesulfonamide] | significant inhibition | −61.57 | increased collagen protein levels | 102 | significant inhibition | −85.00
